From US12202828B2, “Bicyclic heterocycle compounds and their uses in therapy” (ASTEX THERAPEUTICS LIMITED, priority 2013, dated 2025) come the findings set out here.

Common to all, as to assay type: cell-based
Data set [1] deals with EVSA-T (human breast carcinoma). The data set is described as follows: Anti-proliferative activity, Alamar Blue assay, EVSA-T. The settings on record: 72 hours compound, read-out: EVSA-T prolif. How it is done: The method is based on the ability of viable cells to reduce resazurin to its fluorescent product resorufin. For each proliferation assay cells are plated onto 96 well plates and allowed to recover for 16 hours prior to the addition of inhibitor compounds (in 0.1% DMSO v/v) for a further 72 hours.
The anti-proliferative activities of compounds of the invention can be determined by measuring the ability of the compounds to inhibit growth in 3 cancer cell lines: • EVSA-T (human breast carcinoma) DSMZ cat. no.

Data set [2] concerns the target T1, XIAP-Caspase-9 in HEK293-XIAP-Caspase-9 cells (Homo sapiens, UniProt P98170).
T1 construct: FLAG; expressed in transfected cells
The data set is described as follows: HEK293-XIAP-Caspase-9 immunoprecipitation (IP) MSD assay. The settings on record: compound 2 h at 37° C.; read-out: HEK293-X-C9 IP. How it is done:
Stable HEK293-XIAP-Caspase-9 cells were plated out into 96-well plates [200 μl/well at 1×10^6 cells/mL in cultured complete medium (DMEM+10% FBS+0.5 mg/mL Geneticin (Invitrogen)] and left overnight at 37° C. to recover. Compounds were added to duplicate wells in 0.1% DMSO for 2 h at 37° C. Cells were lysed in 50 μl 1×MSD lysis buffer (1% Triton X-100 in 20 mM Tris·Cl (pH 7.6), 150 mM NaCl including protease inhibitors) for 20 min rocking at room temperature. Streptavidin high bind MSD plate (L15SB-2) were coated with biotinylated anti-FLAG M2 antibody (Sigma F9291) at 25 μl/well with a 5 μg/mL dilution of antibody in PBS for 1 h, shaking; followed by blocking for 1 h with 150 μl 3% BSA/TBST. Cell lysate (25 μl) was added to the 96-well anti-FLAG coated MSD plate and placed on shaker for 4 h at room temperature. […] Plates were washed 4 times with 150 μl TBST, and 150 μl/well 1×MSD read buffer (R92TC-2) added before reading each plate.
EC50 values were determined from dose-response plots using nonlinear least-squares analysis.

For the next data set, the target named is T2, hERG ion channel (Homo sapiens, UniProt Q12809).
T2 construct: expressed in transfected cells; host or cells: CHO K1
Description: Population Patch Clamp (PPC) hERG assay in CHO K1 cells. The settings on record: for IC50: CHO K1 cells stably transfected with hERG. On the procedure:
Inhibition of the hERG channel was measured by automated patch clamp assay in CHO K1 cells, stably transfected with the hERG ion channel. PPC measurements were performed using an IonWorks Quattro instrument (Molecular Devices Corporation, Union City, CA) using a 384 well PatchPlate (Molecular Devices Corporation) with 64 apertures per well. Each concentration of test compound was tested in duplicate wells. Amphotericin B was used to obtain electrical access to the cell interior at a final concentration of 200 μg/mL. Human ether-à-gogo related gene (hERG) currents were measured with a prepulse to +40 mV (2 s) from the holding potential of −80 mV, followed by a step to −50 mV (2 s) to elicit the deactivating tail currents, before returning to the holding potential for 1s. Compounds were incubated for 600s between the pre- and post-compound reads. The external recording solution used was 130 mM Na Gluconate, 20 mM NaCl, 4 mM KCl, 1 mM MgCl2, 1.8 mM CaCl2, 10 mM Hepes, 5 mM Glucose, pH to 7.3 with NaOH. All data were filtered for seal quality, seal drop, and current amplitude. The maximum current amplitude of the 3rd pulse tail current was calculated before (Pre) and after (Post) compound addition and the amount of block assessed by dividing the Post-compound current amplitude by the Pre-compound current amplitude.

Several values for one entry are separate records, joined by “and”; a condition that tells them apart may be missing. Equal entries are not always repeated. Structures can show the parent of a compound that is named as a salt. Where two headings read alike, the source gives them in different places.

T1 sequence (P98170 whole entry): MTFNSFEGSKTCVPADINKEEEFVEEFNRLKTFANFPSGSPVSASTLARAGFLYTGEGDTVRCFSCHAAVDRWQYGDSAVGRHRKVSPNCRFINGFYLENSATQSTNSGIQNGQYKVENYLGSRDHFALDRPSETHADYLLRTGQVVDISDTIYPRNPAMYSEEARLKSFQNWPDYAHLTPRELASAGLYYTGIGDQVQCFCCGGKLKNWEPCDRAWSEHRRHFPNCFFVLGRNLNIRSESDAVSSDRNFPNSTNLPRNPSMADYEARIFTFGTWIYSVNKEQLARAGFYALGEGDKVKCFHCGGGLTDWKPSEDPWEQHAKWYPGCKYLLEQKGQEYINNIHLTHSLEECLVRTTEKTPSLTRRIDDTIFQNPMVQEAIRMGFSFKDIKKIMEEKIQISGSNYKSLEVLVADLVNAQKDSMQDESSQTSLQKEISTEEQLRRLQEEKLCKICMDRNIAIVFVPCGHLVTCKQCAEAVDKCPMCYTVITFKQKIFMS
T2 sequence (Q12809 whole entry): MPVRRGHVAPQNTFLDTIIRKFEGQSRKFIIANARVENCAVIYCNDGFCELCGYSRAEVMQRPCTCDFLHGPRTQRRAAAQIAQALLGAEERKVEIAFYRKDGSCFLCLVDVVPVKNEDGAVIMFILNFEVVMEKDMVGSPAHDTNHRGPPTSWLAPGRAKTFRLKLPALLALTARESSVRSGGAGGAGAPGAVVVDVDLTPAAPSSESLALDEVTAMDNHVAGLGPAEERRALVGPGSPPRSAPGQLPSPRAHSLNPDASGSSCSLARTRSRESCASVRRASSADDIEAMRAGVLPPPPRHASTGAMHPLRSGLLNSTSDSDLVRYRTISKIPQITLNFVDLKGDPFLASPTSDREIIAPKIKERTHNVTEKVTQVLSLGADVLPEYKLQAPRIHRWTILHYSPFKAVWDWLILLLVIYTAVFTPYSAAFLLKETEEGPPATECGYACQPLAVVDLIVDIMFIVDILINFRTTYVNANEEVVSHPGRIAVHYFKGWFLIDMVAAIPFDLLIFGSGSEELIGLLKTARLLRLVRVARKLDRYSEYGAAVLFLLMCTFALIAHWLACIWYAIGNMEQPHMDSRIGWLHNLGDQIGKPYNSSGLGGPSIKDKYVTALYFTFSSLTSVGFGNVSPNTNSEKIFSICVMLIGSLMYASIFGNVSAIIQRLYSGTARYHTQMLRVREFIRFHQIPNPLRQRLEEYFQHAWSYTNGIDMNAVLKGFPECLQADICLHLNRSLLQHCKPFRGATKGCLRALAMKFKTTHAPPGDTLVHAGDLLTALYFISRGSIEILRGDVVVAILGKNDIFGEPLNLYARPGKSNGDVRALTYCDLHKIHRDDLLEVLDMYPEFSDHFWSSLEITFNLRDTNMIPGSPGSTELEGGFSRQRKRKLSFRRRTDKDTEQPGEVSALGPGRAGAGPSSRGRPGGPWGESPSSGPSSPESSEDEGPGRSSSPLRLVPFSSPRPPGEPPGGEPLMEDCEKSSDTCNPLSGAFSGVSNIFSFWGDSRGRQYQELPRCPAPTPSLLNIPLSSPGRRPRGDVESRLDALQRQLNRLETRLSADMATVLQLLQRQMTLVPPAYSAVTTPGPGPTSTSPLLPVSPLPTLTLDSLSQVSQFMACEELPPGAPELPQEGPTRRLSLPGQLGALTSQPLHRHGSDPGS

Regarding `C[C@@H]1CN(CC(=O)N2CC(C)(C)c3nc(CO)c(Cc4cccc(F)c4)cc32)[C@@H](CN2CCOC[C@H]2C)CN1` [Example 15, 1-{6-[(3-Fluorophenyl)methyl]-5-(hydroxymethyl)-3,3-dimethyl-1H,2H,3H-pyrrolo[3,2-b]pyridin-1-yl}-2-[(2R,5R)-5-methyl-2-{[(3R)-3-methylmorpholin-4-yl]methyl}piperazin-1-yl]ethan-1-one dihydrochloride], the EC50 in data set [1] (dihydrochloride) was 7.8 nM; in data set [1] (Homo sapiens, EVSA-T, 72 h), less than 10 nM; in data set [2] it was 4.9 nM. For the same compound, on hERG ion channel (@ 100 μM), the “hERG PPC (PI)” value is 55% @ 100.

`C[C@@H]1CN(CC(=O)N2CC(C)(C)c3c2cc(Cc2ccccc2F)c(=O)n3C)[C@@H](CN2CCOC[C@H]2C)CN1` [Example 9, 6-[(2-Fluorophenyl)methyl]-3,3,4-trimethyl-1-{2-[(2R,5R)-5-methyl-2-{[(3R)-3-methylmorpholin-4-yl]methyl}piperazin-1-yl]acetyl}-1H,2H,3H,4H,5H-pyrrolo[3,2-b]pyridin-5-one dihydrochloride]: in data set [2], the EC50 came out at 3 nM. Besides, the “hERG PPC (PI)” value on hERG ion channel (@ 300 μM) was determined as 50% @ 300.

For `C[C@@H]1CN(CC(=O)N2CC(C)(C)c3[nH]c(=O)c(Cc4ccc(F)cc4F)cc32)[C@@H](CN2[C@H](C)COC[C@H]2C)CN1` [Example 7, 6-[(2,4-Difluorophenyl)methyl]-1-{2-[(2R,5R)-2-{[(3R,5R)-3,5-dimethylmorpholin-4-yl]methyl}-5-methylpiperazin-1-yl]acetyl}-3,3-dimethyl-1H,2H,3H,4H,5H-pyrrolo[3,2-b]pyridin-5-one dihydrochloride], the EC50 in data set [2] stood at 1.2 nM. In addition, at hERG ion channel (@ 100 μM), the “hERG PPC (PI)” value was determined as 33% @ 100.

Turning to `C[C@@H]1CN(CC(=O)N2CC(C)(C)c3c2cc(Cc2ccc(F)cc2)c(=O)n3N)[C@@H](CN2CCOC[C@H]2C)CN1` [Example 24, 4-Amino-6-[(4-fluorophenyl)methyl]-3,3-dimethyl-1-{2-[(2R,5R)-5-methyl-2-{[(3R)-3-methylmorpholin-4-yl]methyl}piperazin-1-yl]acetyl}-1H,2H,3H,4H,5H-pyrrolo[3,2-b]pyridin-5-one dihydrochloride], the EC50 in data set [2] is 0.58 nM and 1.1 nM. For the same compound, on hERG ion channel (@ 100 μM), the “hERG PPC (PI)” value was determined as 40% @ 100.

Take `CCCCc1cc2c(n(C)c1=O)C(C)(C)CN2C(=O)CN1C[C@@H](C)NC[C@@H]1CN1[C@H](C)COC[C@H]1C` [Example 33, 6-Butyl-1-{2-[(2R,5R)-2-{[(3R,5R)-3,5-dimethylmorpholin-4-yl]methyl}-5-methylpiperazin-1-yl]acetyl}-3,3,4-trimethyl-1H,2H,3H,4H,5H-pyrrolo[3,2-b]pyridin-5-one dihydrochloride]: the EC50 in data set [2] turned out to be 2.4 nM. For the same compound, at hERG ion channel (@ 31.3 μM), the “hERG PPC (PI)” value was 33% @ 31.3.

A word on the IC50: it is the midpoint of a concentration-inhibition curve. A lower IC50 goes with greater potency. Turning to `C[C@@H]1CN(CC(=O)N2CC(C)(C)c3nc(CO)c(Cc4ccc(F)cc4F)cc32)[C@@H](CN2CCOC[C@H]2C)CN1` [Example 11, 1-{6-[(2,4-Difluorophenyl)methyl]-5-(hydroxymethyl)-3,3-dimethyl-1H,2H,3H-pyrrolo[3,2-b]pyridin-1-yl}-2-[(2R,5R)-5-methyl-2-{[(3R)-3-methylmorpholin-4-yl]methyl}piperazin-1-yl] ethan-1-one dihydrochloride], the EC50 in data set [2] came out at 1.1 nM. The compound further registered an IC50 at hERG ion channel of 51000 nM.

With `C[C@@H]1CN(CC(=O)N2CC(C)(C)c3c2cc(Cc2ccc(F)cc2)c(=O)n3C)[C@@H](CN2C[C@H](C)OC[C@H]2C)CN1` [Example 18, 1-{2-[(2R,5R)-2-{[(2S,5R)-2,5-Dimethylmorpholin-4-yl]methyl}-5-methylpiperazin-1-yl]acetyl}-6-[(4-fluorophenyl)methyl]-3,3,4-trimethyl-1H,2H,3H,4H,5H-pyrrolo[3,2-b]pyridin-5-one trihydrochloride], the EC50 in data set [2] turned out to be 1.2 nM. In addition, the “hERG PPC (PI)” value at hERG ion channel (@ 75 μM) is 44% @ 75.

For the compound `C[C@@H]1CN(CC(=O)N2CC(C)(C)c3c2cc(Cc2ccc(F)cc2F)c(=O)n3C)[C@@H](CN2CCOC[C@H]2C)CN1` [Example 19, 6-[(2,4-Difluorophenyl)methyl]-3,3,4-trimethyl-1-{2-[(2R,5R)-5-methyl-2-{[(3R)-3-methylmorpholin-4-yl]methyl}piperazin-1-yl]acetyl}-1H,2H,3H,4H,5H-pyrrolo[3,2-b]pyridin-5-one dihydrochloride], in data set [2], the EC50 was determined as 1.2 nM. In addition, the “hERG PPC (PI)” value on hERG ion channel (@ 100 μM) was found to be 42% @ 100.

`C[C@@H]1CN(CC(=O)N2CC(C)(C)c3cc(=O)n(Cc4ccc(F)cc4)cc32)[C@@H](CN2CCOC[C@H]2C)CN1` [Example 17, 6-[(4-Fluorophenyl)methyl]-3,3-dimethyl-1-{2-[(2R,5R)-5-methyl-2-{[(3R)-3-methylmorpholin-4-yl]methyl}piperazin-1-yl]acetyl}-1H,2H,3H,5H,6H-pyrrolo[2,3-c]pyridin-5-one dihydrochloride]: the EC50 in data set [2] turned out to be 28 nM. The “hERG PPC (PI)” value at hERG ion channel (@ 300 μM) was found to be 59% @ 300.

With `C[C@@H]1CN(CC(=O)N2CC(C)(C)c3c2cc(Cc2ccc(F)cc2F)c(=O)n3N)[C@@H](CN2CCOC[C@H]2C)CN1.Cl.Cl` [Example 23, 4-Amino-6-[(2,4-difluorophenyl)methyl]-3,3-dimethyl-1-{2-[(2R,5R)-5-methyl-2-{[(3R)-3-methylmorpholin-4-yl]methyl}piperazin-1-yl]acetyl}-1H,2H,3H,4H,5H-pyrrolo[3,2-b] pyridin-5-one dihydrochloride], the EC50 in data set [2] came out at 0.77 nM. On hERG ion channel (@ 100 μM), the “hERG PPC (PI)” value amounted to 63% @ 100.

As for `C[C@@H]1CN(CC(=O)N2CC(C)(C)c3[nH]c(=O)c(Cc4ccc(F)cc4F)cc32)[C@@H](CN2CCOC[C@H]2C)CN1` [Example 8, 6-[(2,4-Difluorophenyl)methyl]-3,3-dimethyl-1-{2-[(2R,5R)-5-methyl-2-{[(3R)-3-methylmorpholin-4-yl]methyl}piperazin-1-yl]acetyl}-1H,2H,3H,4H,5H-pyrrolo[3,2-b]pyridin-5-one dihydrochloride], in data set [2], the EC50 worked out at 5.4 nM. On hERG ion channel (@ 300 μM), the “hERG PPC (PI)” value came to 39% @ 300.

Take `Cc1c2c(cn(Cc3ccc(F)cc3F)c1=O)N(C(=O)CN1C[C@@H](C)NC[C@@H]1CN1CCOC[C@H]1C)CC2(C)C` [Example 31, 6-[(2,4-Difluorophenyl)methyl]-3,3,4-trimethyl-1-{2-[(2R,5R)-5-methyl-2-{[(3R)-3-methylmorpholin-4-yl]methyl}piperazin-1-yl]acetyl}-1H,2H,3H,5H,6H-pyrrolo[2,3-c]pyridin-5-one dihydrochloride]: the EC50 in data set [2] is 0.94 nM and 2.2 nM. The compound further came in with an IC50 against hERG ion channel of 140000 nM.

For `C[C@@H]1CN(CC(=O)N2CC(C)(C)c3cc(=O)n(Cc4ccc(F)cc4F)cc32)[C@@H](CN2C[C@H](C)OC[C@H]2C)CN1.Cl.Cl` [Example 22, 6-[(2,4-Difluorophenyl)methyl]-1-{2-[(2R,5R)-2-{[(2S,5R)-2,5-dimethylmorpholin-4-yl]methyl}-5-methylpiperazin-1-yl]acetyl}-3,3-dimethyl-1H,2H,3H,5H,6H-pyrrolo[2,3-c]pyridin-5-one dihydrochloride], the EC50 in data set [2] amounted to 3.9 nM. Also, the “hERG PPC (PI)” value on hERG ion channel (@ 100 μM) is 47% @ 100.

As for `C[C@@H]1CN(CC(=O)N2CC(C)(C)c3nc(C(O)CO)c(Cc4ccc(F)cc4)cc32)[C@@H](CN2CCOC[C@H]2C)CN1` (single isomer, unassigned) [Example 13, 1-[5-((R or S)-1,2-Dihydroxyethyl)-6-[(4-fluorophenyl)methyl]-3,3-dimethyl-1H,2H,3H-pyrrolo [3,2-b]pyridin-1-yl]-2-[(2R,5R)-5-methyl-2-{[(3R)-3-methylmorpholin-4-yl]methyl}piperazin-1-yl] ethan-1-one dihydrochloride], the EC50 in data set [2] was 4.4 nM. The “hERG PPC (PI)” value at hERG ion channel (@ 300 μM, dihydrochloride) is reported as 46% @ 300.
